In patent publication US7737141B2, “Prodrug of cinnamide compound” (Eisai R&D Management Co., Ltd., priority 2006, dated 2010):
Like-named read-outs stand apart in the source and are kept apart here.

Test: Solubility test: apparent solubility in test solutions, HPLC-UV
Format: physicochemical
Details: for solubility: aqueous buffer, thermodynamic from solid
Experimental: Several milligram of each compound to be tested was precisely weighed, and 0.1 to 1.3 mL of the following test solutions were each added to the compound. The resulting mixture was stirred for several tens of seconds to several minutes for dispersing or dissolving the compound. Then, the supernatant was collected by centrifugation or filtration through a membrane. The concentration of the compound in the supernatant was quantitatively measured by an HPLC-UV method as an apparent solubility of the compound to each test solution.
pH 5: Diluted Mcllvaine buffer solution (KANTO Chemical Co. Inc.)
pH 7: GIBCO™ Dulbecco's phosphate-buffered saline (Invitrogen Corporation)

[1] = pH 7: Dulbecco's phosphate-buffered saline, read-out: Solubility at pH 7
[2] = diluted McIlvaine buffer solution, pH 5: Diluted Mcllvaine buffer solution, read-out: Solubility at pH 5

Compound	solubility [1]	solubility [2]	Solubility at pH 5 (pH 5: Diluted Mcllvaine buffer solution)	Solubility at pH 7 (pH 7: Dulbecco's phosphate-buffered saline)
COc1cc(/C=C2\CC[C@@H]3CCC[C@@H](c4cc(F)c(F)c(F)c4)N3C2=O)ccc1-n1cc(C)[n+](COP(=O)(O)O)c1.O=C([O-])C(F)(F)F [Example 10, 3-{2-methoxy-4-[(6S,9aS)-4-oxo-6-(3,4,5-trifluorophenyl)hexahydroquinolizin-(3E)-ylidenemethyl]phenyl}-5-methyl-1-(phosphonooxymethyl)-3H-imidazol-1-ium trifluoroacetate]	9760 µg/mL	9590 µg/mL		
COc1cc(/C=C2\CC[C@H]3COC[C@@H](c4cc(F)c(F)c(F)c4)N3C2=O)ccc1-n1cc(C)[n+](COP(=O)(O)O)c1.O=C([O-])C(F)(F)F [Example 11, 3-{2-methoxy-4-[(4R,9aS)-6-oxo-4-(3,4,5-trifluorophenyl)hexahydropyrido[2,1-c][1,4]oxazin-(7E)-ylidenemethyl]phenyl}-5-methyl-1-phosphonooxymethyl-3H-imidazol-1-ium trifluoroacetate]	8110 µg/mL	7680 µg/mL		
COc1cc(/C=C2\O[C@@H](C)[C@H]3COC[C@@H](c4ccc(F)c(F)c4)N3C2=O)ccc1-n1cc(C)[n+](COP(=O)(O)O)c1.O=C([O-])C(F)(F)F [Example 17, 3-{4-[(1S,6R,9aR)-6-(3,4-difluorophenyl)-1-methyl-4-oxotetrahydro[1,4]oxazino[3,4-c][1,4]oxazine-(3Z)-ylidenemethyl]-2-methoxyphenyl}-5-methyl-1-phosphonooxymethyl-3H-imidazole-1-ium trifluoroacetate]	7550 µg/mL	> 10000 µg/mL		
COc1cc(/C=C2\OC(C)(C)[C@H]3COC[C@@H](c4cc(F)c(F)c(F)c4)N3C2=O)ccc1-n1cc(C)[n+](COP(=O)(O)O)c1.O=C([O-])C(F)(F)F [Example 18, 3-{4-[(6R,9aR)-1,1-dimethyl-4-oxo-6-(3,4,5-trifluorophenyl)tetrahydro[1,4]oxazino[3,4-c][1,4]oxazine-(3Z)-ylidenemethyl]-2-methoxyphenyl}-5-methyl-1-phosphonooxymethyl-3H-imidazole-1-ium trifluoroacetate]	> 10000 µg/mL	> 10000 µg/mL		
COc1cc(/C=C2\CC[C@H]3CCC[C@@H](c4ccc(Cl)cc4)N3C2=O)ccc1-n1cc(C)[n+](COP(=O)(O)O)c1.O=C([O-])C(F)(F)F [Example 13, 3-{4-[(6S,9aR)-6-(4-chlorophenyl)-4-oxohexahydroquinolizin-(3E)-ylidenemethyl]-2-methoxyphenyl}-5-methyl-1-phosphonooxymethyl-3H-imidazol-1-ium trifluoroacetate]	9150 µg/mL	9330 µg/mL		
COc1cc(/C=C2\CC[C@H]3CC[C@@H](c4ccc(Cl)cc4)N3C2=O)ccc1-n1cc(C)[n+](COP(=O)(O)O)c1.O=C([O-])C(F)(F)F [Example 8, 3-{4-[(3S,8aS)-3-(4-chlorophenyl)-5-oxohexahydroindolizin-(6E)-ylidenemethyl]-2-methoxyphenyl}-5-methyl-1-(phosphonooxymethyl)-3H-imidazol-1-ium trifluoroacetate]	1690 µg/mL	960 µg/mL		
COc1cc(/C=C2\CCCN([C@@H](C)c3ccc(F)cc3)C2=O)ccc1-n1cc(C)[n+](COC(C)=O)c1.[I-] [Example 3, 1-acetoxymethyl-3-[4-{1-[(S)-1-(4-fluorophenyl)ethyl]-2-oxopiperidin-(3E)-ylidenemethyl]-2-methoxyphenyl}-5-methyl-3H-imidazol-1-ium iodide]	1120 µg/mL	1240 µg/mL		
COc1cc(/C=C2\CC[C@H]3CC[C@@H](c4cc(F)c(F)c(F)c4)N3C2=O)ccc1-n1cc(C)[n+](COP(=O)(O)O)c1.O=C([O-])C(F)(F)F [Example 6, 3-{2-methoxy-4-[(3S,8aS)-5-oxo-3-(3,4,5-trifluorophenyl)hexahydroindolizin-(6E)-ylidenemethyl]phenyl}-5-methyl-1-phosphonooxymethyl-3H-imidazol-1-ium trifluoroacetate]	8890 µg/mL	9140 µg/mL		
1-{4-{(E)-1-{[(S)-1-(4-fluorophenyl)ethyl]-2-oxopiperidin-3-ylidene}methyl}-2-methoxyphenyl}-4-methyl-1H-imidazol-3-iomethyl monohydrogenphosphate [Example 2]			>10 mg/mL	>10 mg/mL
COc1cc(/C=C2\O[C@@H](C)[C@H]3COC[C@@H](c4ccc(Cl)cc4)N3C2=O)ccc1-n1cc(C)[n+](COP(=O)(O)O)c1.O=C([O-])C(F)(F)F [Example 15, 3-{4-[(1S,6R,9aR)-6-(4-chlorophenyl)-1-methyl-4-oxotetrahydro[1,4]oxazino[3,4-c][1,4]oxazine-(3Z)-ylidenemethyl]-2-methoxyphenyl}-5-methyl-1-phosphonooxymethyl-3H-imidazole-1-ium trifluoroacetate]	> 10000 µg/mL	> 10000 µg/mL		

Now from value to compound, other results behind:

solubility [1]	solubility [2]	Compound	Solubility at pH 5 (pH 5: Diluted Mcllvaine buffer solution)	Solubility at pH 7 (pH 7: Dulbecco's phosphate-buffered saline)
> 10000 µg/mL	> 10000 µg/mL	COc1cc(/C=C2\O[C@@H](C)[C@H]3COC[C@@H](c4cc(F)c(F)c(F)c4)N3C2=O)ccc1-n1cc(C)[n+](COP(=O)(O)O)c1.O=C([O-])C(F)(F)F [Example 14, 3-{2-methoxy-4-[(1S,6R,9aR)-1-methyl-4-oxo-6-(3,4,5-trifluorophenyl)tetrahydro-[1,4]oxazino[3,4-c][1,4]oxazine-(3Z)-ylidenemethyl]phenyl}-5-methyl-1-phosphonooxymethyl-3H-imidazole-1-ium trifluoroacetate]		
1120 µg/mL	1150 µg/mL	COc1cc(/C=C2\O[C@@H](C)[C@H]3CC[C@@H](c4cc(F)c(F)c(F)c4)N3C2=O)ccc1-n1cc(C)[n+](COP(=O)(O)O)c1.O=C([O-])C(F)(F)F [Example 16, 3-{2-methoxy-4-[(1S,6S,8aR)-1-methyl-4-oxo-6-(3,4,5-trifluorophenyl)tetrahydropyrrolo[2,1-c][1,4]oxazine-(3Z)-ylidenemethyl]phenyl}-5-methyl-1-phosphonooxymethyl-3H-imidazole-1-ium trifluoroacetate]		
460 µg/mL	320 µg/mL	Cc1cn(-c2ccc(/C=C3\O[C@@H](C)CN([C@H](c4cc(F)c(F)c(F)c4)[C@@H](C)O)C3=O)cc2F)c[n+]1COP(=O)(O)O.O=C([O-])C(F)(F)F [Example 5, 3-[2-fluoro-4-[(S)-4-[(1R,2R)-2-hydroxy-1-(3,4,5-trifluorophenyl)propyl]-6-methyl-3-oxomorpholin-(2Z)-ylidenemethyl]phenyl]-5-methyl-1-phosphonooxymethyl-3H-imidazol-1-ium trifluoroacetate]		
4720 µg/mL	3450 µg/mL	Cc1cn(-c2ccc(/C=C3\O[C@@H](C)CN([C@H](c4ccc(F)c(F)c4)[C@@H](C)O)C3=O)cc2F)c[n+]1COP(=O)(O)O.O=C([O-])C(F)(F)F [Example 9, 3-{4-{(S)-4-[(1R,2R)-1-(3,4-difluorophenyl)-2-hydroxypropyl]-6-methyl-3-oxomorpholin-(2Z)-ylidenemethyl}-2-fluorophenyl}-5-methyl-1-phosphonooxymethyl-3H-imidazol-1-ium trifluoroacetate]		
1830 µg/mL	3440 µg/mL	COc1cc(/C=C2\O[C@@H](C)CN([C@H](c3cc(F)c(F)c(F)c3)[C@@H](C)O)C2=O)ccc1-n1cc(C)[n+](COP(=O)(O)O)c1.O=C([O-])C(F)(F)F [Example 12, 3-{4-{(S)-4-[(1R,2R)-2-hydroxy-1-(3,4,5-trifluorophenyl)propyl]-6-methyl-3-oxomorpholin-(2Z)-ylidenemethyl}-2-methoxyphenyl}-5-methyl-1-(phosphonooxymethyl)-3H-imidazol-1-ium trifluoroacetate]		
> 10000 µg/mL	> 10000 µg/mL	COc1cc(/C=C2\CCCN([C@H](c3cc(F)c(F)c(F)c3)[C@@H](C)O)C2=O)ccc1-n1cc(C)[n+](COP(=O)(O)O)c1.O=C([O-])C(F)(F)F [Example 4, 3-{4-{1-[(1R,2R)-2-hydroxy-1-(3,4,5-trifluorophenyl)propyl]-2-oxopiperidin-(3E)-ylidenemethyl}-2-methoxyphenyl}-5-methyl-1-(phosphonooxymethyl)-3H-imidazol-1-ium trifluoroacetate]		
